{"source": "patent US10646591B2", "about": "“Imaging agents for imaging protease activity and uses thereof” (The United States of America, as represented by the …, priority 2011, dated 2020)", "key": {"[1]": {"tested_on": "MMP- and αvβ3 integrin receptor-positive U87MG tumor", "assay": "In vivo optical imaging of U87MG tumor-bearing mice", "conditions": "for fluorescent signals in the tumor over time: 0.5 nmol injected", "procedure": "Female athymic nude mice were supplied from Harlan at 4 to 5 weeks of age. The U87MG tumor model was generated by subcutaneous injection of 5×10^6 cells in Matrigel (BD Biosciences, Sparks, Md.) into the right front flank of female athymic nude mice at a volume of about 80 μl. The mice were then used for optical studies when the tumor volume reached about 300 mm^3. All animal studies were conducted in accordance with the principles and procedures outlined in the Guide for the Care and Use of Laboratory Animals and were approved by the Institutional Animal Care and Use Committee of Clinical Center, NIH.\nOptical imaging acquirement and analysis were done using a Maestro 2.10 in vivo imaging system (CRI). […] The molar concentration of each samples were calculated by the sample weight. At 1, 2, 3, and 4 hours post-injection, the mice were subjected to optical imaging using appropriate filters for Cy5.5 and CW800. For the inhibition experiment, MMP inhibitor was intratumorally injected into tumor bearing mice 30 minutes before the imaging agent injection. After image acquisition, spectral unmixing yielded the pseudocolor images of the pure spectrum of respective dyes. Images were normalized and analyzed using Maestro software. For quantitative comparison, regions of interest (ROI) were drawn over tumors and muscle, and the average signal ([…]) for each area was measured. Values were expressed as mean±s.d. for a group of three animals.\nIt should be noted that only a limited dose of dye-labeled peptide probe like compounds 5 and 7 can be injected for whole body imaging, because of its high fluorescent background from the dye. In contrast, since fluorogenic probes are strongly quenched and a majority of the probe is activated at the target site, higher doses of the imaging agents of the present invention can be injected to enhance the ratio of region-of-interest (ROI) signal of tumor to normal tissue, muscle (T/N), at very early times. After injection, in vivo optical imaging was performed for 4 hours using a small animal imaging system (Maestro 2) equipped with appropriate filters for Cy5.5 and CW800."}, "U87MG cells": {"tested_on": "U87MG cells", "assay": "Fluorescent microscopic study of receptor specificity in fixed U87MG cells", "type": "cell-based, human", "procedure": "The U87MG cell is known to have high αvβ3 integrin density on the cell surface. […] Next, receptor specificity of the probes in cell culture was verified by fluorescent microscopic studies. […] (data not shown)."}, "U87MG tumor": {"tested_on": "U87MG tumor", "assay": "Ex vivo biodistribution in U87MG tumor-bearing mice", "conditions": "4 hour time point", "procedure": "Ex vivo imaging of excised tumor and organs further confirmed the targeting specificity and activation of the probes (data not shown). At 4 hours post-injection, the mice were sacrificed and major organ tissues and tumors were harvested, and placed on black paper for ex vivo imaging. For quantitative comparison, ROIs were drawn over tumors and the other organs, and the average signal for each area was measured. The results were presented as the average scaled signal from the organs and tumors. Values were expressed as mean±s.d. for a group of three animals.\nT/N ratios are illustrated in FIG. 12A. […] After whole-mouse imaging at a 4 hour time point, tumors and organs were carefully removed and the biodistribution of compounds 4 and 6 was evaluated (FIG. 12B)."}, "MMP-positive SCC-7 tumor": {"tested_on": "MMP-positive SCC-7 tumor", "assay": "In vivo NIR fluorescence imaging of SCC-7 tumor-bearing mice", "conditions": "intravenous, imaging for 24 hours, compared to other MMP-Pns and MMPSense 680", "procedure": "Squamous cell carcinoma SCC-7 were cultured in RPMI 1640 medium containing 10% (v/v) fetal bovine serum (Invitrogen, Carlsbad, Calif.) supplemented with penicillin (100 μg/ml) and streptomycin (100 μg/ml) at 37° C. with 5% CO2. The SCC-7 tumor model was developed by subcutaneous injection of 1×10^6 cells into the right front flank of female athymic nude mice (Harlan Laboratories, Indianapolis, Ind.). The mice were used for optical studies when the tumor volume reached about 300 mm^3. […]\nOptical image acquisition and analysis were done using a Maestro 2 imaging system (Cambridge Research & Instrumentation, Inc. (CRI), Woburn, Mass.). […] Images were normalized and analyzed by using Maestro software. For quantitative comparison, the regions of interest (ROI) were drawn over tumor (T) and normal tissue (N, muscle), and the average signal (×10^6 photons×cm^−2×s^−1) for each area was measured. […]\nThe MMP-Pns imaging agents used in Example 2, were then used to create a video image of the activity of MMPs in vivo. […] The MMP-P12 generated strong NIR fluorescence signals as early as 20 to 30 minutes after the probe injection and enabled clear visualization of MMPs in the tumor region thereafter."}}}
{"compound": "CC[N+]1=C(/C=C/C=C/C=C2/N(CCCCCC(=O)NCC(=O)N3CCC[C@H]3C(=O)N[C@@H](CC(C)C)C(=O)NCC(=O)N[C@H](C(=O)N[C@@H](CCCNC(=N)N)C(=O)NCC(=O)N[C@@H](CCCCN)C(=O)NCC(=O)NCC(=O)NCCCC[C@@H]3NC(=O)[C@@H](Cc4ccc(O)cc4)NC(=O)[C@H](CC(=O)O)NC(=O)CNC(=O)[C@H](CCCNC(=N)N)NC3=O)C(C)C)c3ccc4c(S(=O)(=O)O)cc(S(=O)(=O)O)cc4c3C2(C)C)C(C)(C)c2c1ccc1c(S(=O)(=O)O)cc(S(=O)(=O)O)cc21", "note": "[compound 5]", "values": [{"measurement": "fluorescent signals in the tumor over time", "setting": "[1]", "value": "gradually increased"}, {"measurement": "fluorescent signals on the cell membranes", "setting": "U87MG cells; 30 minutes of incubation at 37° C.", "value": "Strong positive fluorescent signals"}, {"measurement": "binding with receptor blocking by excess c(RGDyK)", "setting": "U87MG cells; blocking dose of c(RGDyK) 10 μM", "value": "significantly decreased"}]}
{"compound": "CCN(CC)c1ccc2nc3ccc(/N=N/c4ccc(N(C)CCCC(=O)NCCCC[C@H](NC(=O)CNC(=O)[C@H](CCCNC(=N)N)NC(=O)[C@@H](NC(=O)CNC(=O)[C@H](CC(C)C)NC(=O)[C@@H]5CCCN5C(=O)CNC(=O)CCCCCN5/C(=C/C=C/C=C/C6=[N+](CC)c7ccc8c(S(=O)(=O)O)cc(S(=O)(=O)[O-])cc8c7C6(C)C)C(C)(C)c6c5ccc5c(S(=O)(=O)O)cc(S(=O)(=O)[O-])cc65)C(C)C)C(=O)NCC(=O)NCC(=O)NCCCC[C@@H]5NC(=O)[C@@H](Cc6ccc(O)cc6)NC(=O)[C@H](CC(=O)O)NC(=O)CNC(=O)[C@H](CCCNC(=N)N)NC5=O)cc4)cc3[n+](-c3ccccc3)c2c1", "note": "[compound 4]", "values": [{"measurement": "NIR fluorescence signal from the tumor with MMP inhibitor", "setting": "[1]; MMP inhibitor intratumorally 30 minutes before probe", "value": "significantly reduced"}, {"measurement": "tumor uptake with excess unlabeled c(RGDyK)", "setting": "[1]; c(RGDyK) 200 nmol, 30 minutes post-injection", "value": "effectively blocked"}, {"measurement": "brightness of NIR fluorescent images", "setting": "[1]; from 1 hour post-injection", "value": "brighter NIR fluorescent images compared to compound 6"}, {"measurement": "visualization of MMP expression in MMP positive tumor", "setting": "[1]; intravenous, imaging for 4 hours", "value": "enabled visualization of MMP expression"}, {"measurement": "ex vivo biodistribution (site of activation)", "setting": "U87MG tumor", "value": "predominantly activated in the tumors"}]}
{"compound": "CC1(C)C(/C=C/C2=C(Oc3ccc(S(=O)(=O)O)cc3)C(=C/C=C3/N(CCCCS(=O)(=O)O)c4ccc(S(=O)(=O)O)cc4C3(C)C)/CCC2)=[N+](CCCCCC(=O)NCCCC[C@@H]2NC(=O)[C@@H](Cc3ccc(O)cc3)NC(=O)[C@H](CC(=O)O)NC(=O)CNC(=O)[C@H](CCCNC(=N)N)NC2=O)c2ccc(S(=O)(=O)O)cc21", "note": "[compound 7]", "values": [{"measurement": "fluorescent signals in the tumor over time", "setting": "[1]", "value": "gradually increased"}]}
{"compound": "MMP-P4: Cy5.5-GPLGVRGK(BHQ3)GG-R, R = -NH(CH2CH2O)4H", "values": [{"measurement": "onset of activation in vivo, NIR fluorescence in tumor region", "setting": "MMP-positive SCC-7 tumor", "value": "early onset of activation in vivo"}]}
